Data published in PMC9481151, “Discovery of new symmetrical and asymmetrical nitrile-containing 1,4-dihydropyridine derivatives as dual kinases and P-glycoprotein inhibitors: synthesis, in vitro assays, and in silico studies” (Journal of Enzyme Inhibition and Medicinal Chemistry, 2022).
Converted amounts (≈) assume the structure as drawn.

Columns and labels:
OVCAR-3 = assay: NCI single dose (10 µM) SRB screen; assay type: cell-based, human; conditions: ovarian cancer, 48 h
IGROV1 = assay: NCI single dose (10 µM) SRB screen; assay type: cell-based, human; conditions: ovarian cancer, 48 h
HCT-116 cells [1] = assay: In vitro cell cycle analysis (DNA flow cytometry); assay type: cell-based, human; conditions: HCT-116, 24 h, IC50 concentrations
Protocol: Targeting the cancer cell cycle has been developed as a encouraging approach for cancer therapy.[66]
The cells were centrifuged, frozen in cold 75% ethanol, washed in phosphate buffered saline, resuspended with […] RNase, then stained with […] PI, and analysed with a FACS Calibur (Becton Dickinson, BD, Franklin Lakes, NJ). The cell cycle distributions were determined using Becton Dickinson’s CellQuest software version 5.1.[80]

OVCAR-5 = assay: NCI single dose (10 µM) SRB screen; assay type: cell-based, human; conditions: ovarian cancer, 48 h
SF-539 = assay: NCI single dose (10 µM) SRB screen; assay type: cell-based, human; conditions: CNS cancer, 48 h
HER-2 = HER-2 (Homo sapiens, UniProt P04626); assay: HER-2 kinase inhibitory activity; assay type: biochemical; conditions: for HER-2 Potency: (IC50 lapatinib/IC50 Compound)*100; for IC50: read-out: HER-2 IC50 ± SD
[2] = tested on: drug-resistant HCT-116/ADR cells; assay: Potentiation of DOX cytotoxicity (reversal DOX effect, P-gp modulation); assay type: cell-based, human; conditions: IC50 (DOX) without modulator / IC50 (DOX) with modulator
BTK = BTK (Homo sapiens, UniProt Q06187); assay: BTK inhibitory activity; assay type: biochemical; conditions: for BTK Potency: (IC50 lapatinib/IC50 Compound)*100; for IC50: read-out: BTK IC50 ± SD
HCT-116 cells [3] = assay: In vitro cytotoxicity; conditions: Homo sapiens, HCT-116, read-out: Cytotoxicity IC50, HCT-116
Aspergillus flavus = assay: Agar well diffusion method; conditions: for zone of inhibition at 1000 µg/mL: Aspergillus flavus, 24 h, read-out: Diameter of inhibition zone, A. flavus; for % activity index, A. flavus: relative to clotrimazole
RXF 393 = assay: NCI single dose (10 µM) SRB screen; assay type: cell-based, human; conditions: renal cancer, 48 h
OVCAR-8 = assay: NCI single dose (10 µM) SRB screen; assay type: cell-based, human; conditions: ovarian cancer, 48 h
SK-MEL-28 = assay: NCI single dose (10 µM) SRB screen; assay type: cell-based, human; conditions: melanoma, 48 h
OVCAR-4 = assay: NCI single dose (10 µM) SRB screen; assay type: cell-based, human; conditions: ovarian cancer, 48 h
SN12C = assay: NCI single dose (10 µM) SRB screen; assay type: cell-based, human; conditions: renal cancer, 48 h
HCT-116/ADR cells = assay: cells; conditions: Homo sapiens, HCT-116, read-out: Cytotoxicity IC50, HCT-116/ADR
Pseudomonas aeruginosa = assay: Agar well diffusion method; conditions: for zone of inhibition at 1000 µg/mL: Pseudomonas aeruginosa, 24 h, read-out: Diameter of inhibition zone, P. aeruginosa; for % activity index, P. aeruginosa: relative to ciprofloxacin
HCT-116 cells [4] = assay: Annexin V–FITC apoptosis assay; assay type: cell-based, human; conditions: HCT-116, 10 µM, 24 h
From the text: Apoptosis induction is the most important mechanism by chemotherapeutics killing tumour cells.[62]^,[63] Phosphatidylserine (PS) is translocated from the inside to the outside of the plasma membrane during apoptosis, causing cellular alterations. Annexin-V binds to PS and can be employed as a sensitive probe on the plasma membrane’s outer side.[64]^,[65]
PS externalisation was identified using the apoptosis detection kit (Annexin V-FITC/PI) (BD Biosciences) in accordance with the manufacturer’s guidelines.[79]

K-562 = assay: NCI single dose (10 µM) SRB screen; assay type: cell-based, human; conditions: leukaemia, 48 h
EGFR = EGFR (Homo sapiens, UniProt P00533); assay: EGFR kinase inhibitory activity; assay type: biochemical; conditions: for EGFR Potency: (IC50 lapatinib/IC50 Compound)*100; for IC50: read-out: EGFR IC50 ± SD
T-47D = assay: NCI single dose (10 µM) SRB screen; assay type: cell-based, human; conditions: breast cancer, 48 h
NCI-H460 = assay: NCI single dose (10 µM) SRB screen; assay type: cell-based, human; conditions: non-small cell lung cancer, 48 h
786-0 = assay: NCI single dose (10 µM) SRB screen; assay type: cell-based, human; conditions: renal cancer, 48 h
B. subtilis = assay: MIC, two-fold microbroth dilution method; conditions: Bacillus subtilis, read-out: MIC (µg/mL) B. subtilis
C. albicans = assay: MIC, two-fold microbroth dilution method; conditions: Candida albicans, read-out: MIC (µg/mL) C. albicans
S. aureus = assay: MIC, two-fold microbroth dilution method; conditions: Staphylococcus aureus, read-out: MIC (µg/mL) S. aureus
P. aeruginosa = assay: MIC, two-fold microbroth dilution method; conditions: Pseudomonas aeruginosa, read-out: MIC (µg/mL) P. aeruginosa
E. coli = assay: MIC, two-fold microbroth dilution method; conditions: Escherichia coli, read-out: MIC (µg/mL) E. coli
A. flavus = assay: MIC, two-fold microbroth dilution method; conditions: Aspergillus flavus, read-out: MIC (µg/mL) A. flavus

HER-2, sequence (P04626 23-1255): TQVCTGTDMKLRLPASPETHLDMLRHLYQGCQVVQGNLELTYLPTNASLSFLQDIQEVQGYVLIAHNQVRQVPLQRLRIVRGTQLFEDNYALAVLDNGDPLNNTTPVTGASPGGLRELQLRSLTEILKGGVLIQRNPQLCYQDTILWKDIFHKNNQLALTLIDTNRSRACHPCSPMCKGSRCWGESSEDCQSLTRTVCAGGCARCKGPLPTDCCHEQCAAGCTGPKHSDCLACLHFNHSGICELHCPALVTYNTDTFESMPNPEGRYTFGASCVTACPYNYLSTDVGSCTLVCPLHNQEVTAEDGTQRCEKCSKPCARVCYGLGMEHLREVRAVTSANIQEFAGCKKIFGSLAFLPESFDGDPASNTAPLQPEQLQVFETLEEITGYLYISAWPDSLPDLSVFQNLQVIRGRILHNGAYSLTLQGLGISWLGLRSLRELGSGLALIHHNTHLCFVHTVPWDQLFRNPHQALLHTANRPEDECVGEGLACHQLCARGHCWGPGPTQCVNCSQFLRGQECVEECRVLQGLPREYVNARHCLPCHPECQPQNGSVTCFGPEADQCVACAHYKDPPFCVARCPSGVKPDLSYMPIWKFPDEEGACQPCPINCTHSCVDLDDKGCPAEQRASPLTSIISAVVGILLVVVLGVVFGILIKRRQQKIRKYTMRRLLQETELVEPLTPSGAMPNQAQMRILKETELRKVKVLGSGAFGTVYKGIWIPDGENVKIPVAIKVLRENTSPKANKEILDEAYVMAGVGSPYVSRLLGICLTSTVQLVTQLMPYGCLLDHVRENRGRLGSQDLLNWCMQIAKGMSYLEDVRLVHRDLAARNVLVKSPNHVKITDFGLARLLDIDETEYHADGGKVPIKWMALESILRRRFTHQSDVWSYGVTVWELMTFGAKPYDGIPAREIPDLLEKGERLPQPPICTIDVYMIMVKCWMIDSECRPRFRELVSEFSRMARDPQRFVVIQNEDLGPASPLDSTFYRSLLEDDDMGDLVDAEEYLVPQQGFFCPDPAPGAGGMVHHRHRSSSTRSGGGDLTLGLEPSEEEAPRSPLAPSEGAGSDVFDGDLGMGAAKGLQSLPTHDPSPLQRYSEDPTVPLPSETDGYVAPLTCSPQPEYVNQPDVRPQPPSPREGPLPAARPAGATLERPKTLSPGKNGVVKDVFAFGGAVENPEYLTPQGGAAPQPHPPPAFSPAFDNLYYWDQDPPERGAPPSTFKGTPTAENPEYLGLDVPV
BTK, sequence (Q06187 whole entry): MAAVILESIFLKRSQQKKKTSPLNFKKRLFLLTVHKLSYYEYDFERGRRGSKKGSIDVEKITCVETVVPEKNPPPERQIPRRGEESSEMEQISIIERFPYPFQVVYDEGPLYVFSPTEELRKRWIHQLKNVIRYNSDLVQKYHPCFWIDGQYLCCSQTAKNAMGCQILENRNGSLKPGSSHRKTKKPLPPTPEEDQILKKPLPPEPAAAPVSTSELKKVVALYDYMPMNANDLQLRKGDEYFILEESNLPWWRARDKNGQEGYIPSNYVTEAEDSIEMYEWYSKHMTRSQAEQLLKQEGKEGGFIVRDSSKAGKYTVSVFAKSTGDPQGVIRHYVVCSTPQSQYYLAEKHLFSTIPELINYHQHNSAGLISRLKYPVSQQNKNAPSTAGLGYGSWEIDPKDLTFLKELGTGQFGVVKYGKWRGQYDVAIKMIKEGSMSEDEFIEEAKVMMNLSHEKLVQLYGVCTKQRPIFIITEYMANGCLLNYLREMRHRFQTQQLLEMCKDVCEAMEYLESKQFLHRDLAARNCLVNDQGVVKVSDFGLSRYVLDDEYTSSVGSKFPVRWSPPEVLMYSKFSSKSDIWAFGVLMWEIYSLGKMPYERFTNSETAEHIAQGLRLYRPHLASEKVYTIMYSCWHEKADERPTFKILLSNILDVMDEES
EGFR, sequence (P00533 25-1210): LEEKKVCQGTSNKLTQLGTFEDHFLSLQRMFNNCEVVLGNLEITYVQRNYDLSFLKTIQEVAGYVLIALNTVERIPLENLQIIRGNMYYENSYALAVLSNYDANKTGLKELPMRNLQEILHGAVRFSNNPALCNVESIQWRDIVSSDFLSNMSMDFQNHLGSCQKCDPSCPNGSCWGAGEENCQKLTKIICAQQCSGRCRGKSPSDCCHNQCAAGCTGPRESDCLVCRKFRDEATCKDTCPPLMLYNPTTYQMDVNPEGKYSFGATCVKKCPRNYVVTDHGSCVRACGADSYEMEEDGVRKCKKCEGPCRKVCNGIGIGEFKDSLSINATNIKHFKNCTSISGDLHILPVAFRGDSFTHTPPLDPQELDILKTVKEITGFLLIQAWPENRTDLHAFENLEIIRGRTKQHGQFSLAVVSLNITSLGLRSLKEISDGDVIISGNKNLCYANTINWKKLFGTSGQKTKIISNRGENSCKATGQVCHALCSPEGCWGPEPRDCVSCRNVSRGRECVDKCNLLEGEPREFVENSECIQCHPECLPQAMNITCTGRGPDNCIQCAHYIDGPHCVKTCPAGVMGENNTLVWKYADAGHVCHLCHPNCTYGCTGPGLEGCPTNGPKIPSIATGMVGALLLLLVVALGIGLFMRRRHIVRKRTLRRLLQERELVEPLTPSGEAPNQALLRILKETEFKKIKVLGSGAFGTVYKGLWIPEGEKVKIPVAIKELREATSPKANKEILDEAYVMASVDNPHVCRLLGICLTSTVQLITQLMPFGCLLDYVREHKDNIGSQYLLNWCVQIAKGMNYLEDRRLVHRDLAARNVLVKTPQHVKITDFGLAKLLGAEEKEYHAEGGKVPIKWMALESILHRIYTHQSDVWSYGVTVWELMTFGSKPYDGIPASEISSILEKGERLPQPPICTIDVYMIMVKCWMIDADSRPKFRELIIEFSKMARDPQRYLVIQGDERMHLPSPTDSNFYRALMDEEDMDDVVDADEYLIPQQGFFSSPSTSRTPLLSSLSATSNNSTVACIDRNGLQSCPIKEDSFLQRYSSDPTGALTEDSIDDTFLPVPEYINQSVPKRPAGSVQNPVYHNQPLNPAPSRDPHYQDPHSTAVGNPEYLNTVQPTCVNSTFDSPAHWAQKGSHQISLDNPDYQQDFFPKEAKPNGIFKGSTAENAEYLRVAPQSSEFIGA

HER-2 Potency (HER-2) [%] | IC50 (HER-2) [nM] | BTK Potency (BTK) [%] | IC50 (BTK) [nM] | Structure (SMILES) | GI% OVCAR-3 (OVCAR-3) | GI% IGROV1 (IGROV1) [%] | %G0-G1 (HCT-116 cells [1]) | %G2-M (HCT-116 cells [1]) | %Pre-G1 (HCT-116 cells [1]) | GI% OVCAR-5 (OVCAR-5) [%] | GI% SF-539 (SF-539) [%] | RF (reversal fold activity) [2] | IC50 (HCT-116 cells [3]) [nM] | zone of inhibition at 1000 µg/mL (Aspergillus flavus) [mm] | % activity index, A. flavus (Aspergillus flavus) [%] | GI% RXF 393 (RXF 393) [%] | GI% OVCAR-8 (OVCAR-8) [%] | GI% SK-MEL-28 (SK-MEL-28) [%] | GI% OVCAR-4 (OVCAR-4) | GI% SN12C (SN12C) | also measured
95.13 | 76.5 ± 0.87 | 74.91 | 82.1 ± 1.4 | COC(=O)C1=C(C)NC(C)=C(C(=O)OCc2ccccc2)C1c1cccc(C#N)c1 (racemic) [Compound 2e, (±)-3-Benzyl 5-methyl 4-(3-cyanophenyl)-2,6-dimethyl-1,4-dihydropyridine-3,5-dicarboxylate] | – (Only GI% ≥ 10 are shown) | 36 | 39.17–43.25% | 26.03–31.84% | 15.57–19.36% | 21 | 32 | 7.68 | 1270 ± 420 | 10 | 40 | 14 | 34 | 27 | – (Only GI% ≥ 10 are shown) | – (Only GI% ≥ 10 are shown) | IC50 (HCT-116/ADR cells): 29400 ± 450 nM; zone of inhibition at 1000 µg/mL (Pseudomonas aeruginosa): 7 mm; % activity index, P. aeruginosa (Pseudomonas aeruginosa): 30.4%; early apoptosis ratio (lower-right quadrant) (HCT-116 cells [4]): 4.37–6.17%; late apoptosis ratio (upper-right quadrant) (HCT-116 cells [4]): 9.45–11.28%; GI% K-562 (K-562): 56%; EGFR Potency (EGFR): 67.68%; IC50 (EGFR): 80.4 ± 1.26 nM; GI% T-47D (T-47D): 11%; GI% NCI-H460 (NCI-H460): 64%; GI% 786-0 (786-0): 22%
103.20 | 70.55 ± 0.63 | 101.99 | 60.27 ± 0.42 | CC1=C(C(=O)OCc2ccccc2)C(c2cccc(C#N)c2)C(C(=O)OCc2ccccc2)=C(C)N1 [Compound 1g, Dibenzyl 4-(3-cyanophenyl)-2,6-dimethyl-1,4-dihydropyridine-3,5-dicarboxylate] | 23% | 45 | 39.17–43.25% | 26.03–31.84% | 15.57–19.36% | 19 | 35 | 23.48 | 990 ± 580 | 14 | 56 | 36 | 41 | 34 | 33% | 32% | MIC (B. subtilis): 32 µg/mL (≈ 66.9 µM); MIC (C. albicans): 64 µg/mL (≈ 134 µM); MIC (S. aureus): 64 µg/mL (≈ 134 µM); MIC (P. aeruginosa): 32 µg/mL (≈ 66.9 µM); MIC (E. coli): 32 µg/mL (≈ 66.9 µM); IC50 (HCT-116/ADR cells): 10610 ± 100 nM; zone of inhibition at 1000 µg/mL (Pseudomonas aeruginosa): 16 mm; % activity index, P. aeruginosa (Pseudomonas aeruginosa): 69.6%; early apoptosis ratio (lower-right quadrant) (HCT-116 cells [4]): 4.37–6.17%; late apoptosis ratio (upper-right quadrant) (HCT-116 cells [4]): 9.45–11.28%; GI% K-562 (K-562): 69%; EGFR Potency (EGFR): 87.44%; IC50 (EGFR): 62.2 ± 0.76 nM; GI% T-47D (T-47D): 53%; GI% NCI-H460 (NCI-H460): 64%; GI% 786-0 (786-0): 32%; MIC (A. flavus): > 64 µg/mL
